From patent US20110312941A1, “1,4-DISUBSTITUTED PIPERIDINES AS VASOPRESSIN RECEPTOR VIA ANTAGONISTS” (VANTIA LIMITED, priority 2009, published 2011)

These compounds were tested against T1, cloned human V1a receptor (Homo sapiens, UniProt P37288) (assay: in vitro functional calcium mobilisation assay (FLIPR), antagonist activity, 1321N1 cells, 250 pM AVP). Details: functional pKi derived from pIC50 (Equation 1), FLIPR Ca2+ mobilisation, 1321N1 cells expressing cloned human V1a receptor, read-out: Mean fpKi (Human V1a) (converted).
T1 construct: host or cells: human brain astrocytoma 1321N1 cells
Format: cell-based
Description: The primary assay which may be used to determine the ability of the compounds of formula (1) to inhibit the vasopressin V1a receptor is an in vitro functional calcium mobilisation assay (FLIPR) that measures antagonist activity at a cloned human V1a receptor. The assay is described below.
The antagonist activity of compounds of formula (1) were determined in a Calcium (Ca2+) mobilisation assay using whole cells (human brain astrocytoma 1321N1 cells, ex Perkin Elmer) genetically modified to stably express a cloned human V1a receptor. Dose response curves were determined by displacement of a single concentration of agonist (250 pM AVP, ex Sigma) with increasing concentrations of compound. A pIC50 value is determined by non-linear regression to a 4-parameter logistic equation and a functional pKi (fpKi) derived using Equation 1.
where A=agonist single conc, and A50=the agonist EC50.

T1 sequence (P37288 whole entry): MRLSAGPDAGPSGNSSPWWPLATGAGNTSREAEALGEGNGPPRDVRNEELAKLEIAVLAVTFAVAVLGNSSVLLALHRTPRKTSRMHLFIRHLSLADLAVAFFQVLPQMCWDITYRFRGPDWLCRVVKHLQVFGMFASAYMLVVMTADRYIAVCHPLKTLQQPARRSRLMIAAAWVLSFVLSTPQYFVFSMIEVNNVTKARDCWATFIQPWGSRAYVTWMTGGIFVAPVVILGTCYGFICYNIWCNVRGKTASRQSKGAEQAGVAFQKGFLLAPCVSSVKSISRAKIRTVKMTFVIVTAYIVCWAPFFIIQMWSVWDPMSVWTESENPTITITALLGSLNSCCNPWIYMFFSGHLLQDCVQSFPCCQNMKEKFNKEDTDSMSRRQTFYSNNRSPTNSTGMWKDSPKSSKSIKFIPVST

| Structure (SMILES) | Ki [nM] |
| --- | --- |
| Cc1cncc(N2CCC(C(=O)N3CCc4nc(N5CCOCC5)[nH]c4-c4cc(C)ccc43)CC2)c1 [Example 70] | 6.61 |
| O=C(C1CCN(c2cnccn2)CC1)N1Cc2cccn2Cc2ccccc21 [Example 148] | 28.2 |
| CCc1ccc(N2CCC(C(=O)N3Cc4cccn4Cc4ccccc43)CC2)cc1 [Example 165] | 1.55 |
| O=C(C1CCN(c2ccccc2)CC1)N1Cc2cccn2Cc2ccccc21 [Example 149] | 0.589 |
| COc1ccnc(N2CCC(C(=O)N3CCc4nc(N5CCOCC5)[nH]c4-c4cc(C)ccc43)CC2)c1 [Example 33] | 0.977 |
| O=C(C1CCN(c2ccc([N+](=O)[O-])cc2)CC1)N1Cc2cccn2Cc2ccccc21 [Example 174] | 162 |
| O=C(C1CCN(c2cccc([N+](=O)[O-])c2)CC1)N1Cc2cccn2Cc2ccccc21 [Example 173] | 17 |
| Cc1cccnc1N1CCC(C(=O)N2CCc3nc(N4CCOCC4)[nH]c3-c3cc(F)ccc32)CC1 [Example 14] | 2.51 |
| Nc1ccccc1N1CCC(C(=O)N2Cc3cccn3Cc3ccccc32)CC1 [Example 175, [1-(2-Amino-phenyl)-piperidin-4-yl]-(5H,11H-benzo[e]pyrrolo[1,2-a][1,4]diazepin-10-yl)-methanone] | 3.98 |
| COc1ccccc1N1CCC(C(=O)N2Cc3cccn3Cc3ccccc32)CC1 [Example 162] | 3.16 |
| Cc1cccc(N2CCC(C(=O)N3Cc4cccn4Cc4ccccc43)CC2)c1 [Example 160] | 3.16 |
| Cc1ccc2c(c1)-c1[nH]c(N3CCOCC3)nc1CCN2C(=O)C1CCN(c2cccnc2C)CC1 [Example 71] | 16.6 |
| Cc1ccc(N2CCC(C(=O)N3CCc4nc(N5CCN(C)CC5)[nH]c4-c4cc(C)ccc43)CC2)nc1 [Example 30] | 1.78 |
| O=C(C1CCN(c2ccccn2)CC1)N1Cc2cccn2Cc2ccccc21 [Example 144] | 3.16 |
| Cc1ccc2c(c1)-c1[nH]c(N3CCOCC3)nc1CCN2C(=O)C1CCN(c2ccccn2)CC1 [Example 31] | 3.8 |
| O=C(C1CCN(c2ccc(C(F)(F)F)cc2)CC1)N1Cc2cccn2Cc2ccccc21 [Example 169] | 30.9 |

| Structure (SMILES) | Ki [nM] |
| --- | --- |
| COc1ccc(N2CCC(C(=O)N3CCc4nc(N5CCOCC5)[nH]c4-c4cc(C)ccc43)CC2)nc1 [Example 34] | 2.69 |
| O=C(C1CCN(c2ccccc2F)CC1)N1Cc2cccn2Cc2ccccc21 [Example 154] | 1.48 |
| O=C(C1CCN(c2ccc(F)cc2)CC1)N1Cc2cccn2Cc2ccccc21 [Example 156] | 1.45 |
| Cc1ccc2c(c1)-c1[nH]c(C3CCOCC3)nc1CCN2C(=O)C1CCN(c2ncccc2C)CC1 [Example 37] | 4.37 |
| COc1ccc(N2CCC(C(=O)N3Cc4cccn4Cc4ccccc43)CC2)cc1 [Example 164] | 14.1 |
| COc1cccnc1N1CCC(C(=O)N2CCc3nc(N4CCOCC4)[nH]c3-c3cc(C)ccc32)CC1 [Example 3, (3′-Methoxy-3,4,5,6-tetrahydro-2H-[1,2′]bipyridinyl-4-yl)-(9-methyl-2-morpholin-4-yl-4,5-dihydro-1H-1,3,6-triaza-benzo[e]azulen-6-yl)-methanone] | 0.977 |
| Nc1ccc(N2CCC(C(=O)N3Cc4cccn4Cc4ccccc43)CC2)cc1 [Example 176] | 2.51 |
| O=C(C1CCN(c2ccccc2)CC1)N1CCc2nc(-c3ccccc3F)[nH]c2-c2cc(Cl)ccc21 [Example 80] | 81.3 |
| O=C(C1CCN(c2ccccn2)CC1)N1CCc2nc(N3CCOCC3)[nH]c2-c2ccccc21 [Example 9] | 18.2 |
| O=C(C1CCN(c2ccc(Cl)cc2)CC1)N1Cc2cccn2Cc2ccccc21 [Example 158] | 4.79 |
| O=C(C1CCN(c2cccc(F)c2)CC1)N1Cc2cccn2Cc2ccccc21 [Example 155] | 4.57 |
| Cc1ccc(N2CCC(C(=O)N3CCc4nc(N5CCOCC5)[nH]c4-c4ccccc43)CC2)nc1 [Example 12] | 2.14 |
| Cc1nc2c([nH]1)-c1ccccc1N(C(=O)C1CCN(c3ncccn3)CC1)CC2 [Example 6] | 912 |
| CC(C)c1ccc(N2CCC(C(=O)N3Cc4cccn4Cc4ccccc43)CC2)cc1 [Example 167] | 3.63 |
| Cc1ccc2c(c1)-c1[nH]c(N3CCOCC3)nc1CCN2C(=O)C1CCN(c2ccc(C)nc2)CC1 [Example 4, (9-Methyl-2-morpholin-4-yl-4,5-dihydro-1H-1,3,6-triaza-benzo[e]azulen-6-yl)-(6′-methyl-3,4,5,6-tetrahydro-2H-[1,3′]bipyridinyl-4-yl)-methanone] | 1.48 |

Further lines, results first:

| Ki [nM] | Structure (SMILES) |
| --- | --- |
| 30.2 | COc1cccnc1N1CCC(C(=O)N2Cc3cnn(C)c3Nc3cc(C)ccc32)CC1 [Example 113] |
| 7.41 | CCCc1nc2c([nH]1)-c1cc(C)ccc1N(C(=O)C1CCN(c3cccc(C)n3)CC1)CC2 [Example 62] |
| 11 | O=C(C1CCN(c2ccccc2)CC1)N1CCc2nc(C3CC3)[nH]c2-c2cc(Cl)ccc21 [Example 75] |
| 2.14 | CCCc1nc2c([nH]1)-c1cc(C)ccc1N(C(=O)C1CCN(c3ccc(C)cn3)CC1)CC2 [Example 23] |
| 151 | Cc1ccc2c(c1)Nc1c(cnn1C)CN2C(=O)C1CCN(c2ncccn2)CC1 [Example 102] |
| 13.8 | CCc1cnc(N2CCC(C(=O)N3Cc4cnn(-c5ccccc5)c4Nc4cc(Cl)ccc43)CC2)nc1 [Example 105] |
| 97.7 | O=C(C1CCN(c2ccccn2)CC1)N1CCc2nc(-c3cccc(F)c3)[nH]c2-c2cc(Cl)ccc21 [Example 55] |
| 4.47 | CCCCc1nc2c([nH]1)CCN(C(=O)C1CCN(c3ccc(C)cn3)CC1)c1ccc(C)cc1-2 [Example 27] |
| 12.9 | Cc1cccc(N2CCC(C(=O)N3CCc4nc(N5CCOCC5)[nH]c4-c4ccccc43)CC2)n1 [Example 60] |
| 1.2 | CCn1ncc2c1Nc1cc(Cl)ccc1N(C(=O)C1CCN(c3cccc(C)n3)CC1)C2 [Example 126] |
| 25.7 | Cc1nc2c([nH]1)-c1cc(Cl)ccc1N(C(=O)C1CCN(c3ccccc3C)CC1)CC2 [Example 89] |
| 0.603 | CCn1ncc2c1Nc1cc(Cl)ccc1N(C(=O)C1CCN(c3ccc(C)cn3)CC1)C2 [Example 122] |
| 24.5 | O=C(C1CCN(c2ccccn2)CC1)N1CCc2nc(N3CCCCC3)[nH]c2-c2cc(Cl)ccc21 [Example 50] |
| 0.741 | CCc1ccc(N2CCC(C(=O)N3Cc4cnn(C)c4Nc4cc(C)ccc43)CC2)cc1 [Example 132] |
| 8.51 | Cn1ncc2c1Nc1cc(Cl)ccc1N(C(=O)C1CCN(c3ccc(C(F)(F)F)cc3)CC1)C2 [Example 140] |
| 2 | Cc1ccnc(N2CCC(C(=O)N3Cc4cnn(C)c4Nc4cc(Cl)ccc43)CC2)c1 [Example 117] |
| 12.6 | Cn1ncc2c1Nc1ccccc1N(C(=O)C1CCN(c3ccccn3)CC1)C2 [Example 106] |
| 22.4 | Cc1nc2c([nH]1)-c1cc(Cl)ccc1N(C(=O)C1CCN(c3ccc(C(C)C)cc3)CC1)CC2 [Example 97] |

| Ki [nM] | Structure (SMILES) |
| --- | --- |
| 2.88 | Cc1ccc(N2CCC(C(=O)N3Cc4cnn(C)c4Nc4cc(Cl)ccc43)CC2)cn1 [Example 142] |
| 11 | Cc1nc2c([nH]1)-c1cc(Cl)ccc1N(C(=O)C1CCN(c3ccc(F)cc3)CC1)CC2 [Example 85] |
| 5.89 | Cc1cccc(N2CCC(C(=O)N3Cc4cnn(C)c4Nc4cc(Cl)ccc43)CC2)n1 [Example 125] |
| 9.55 | Cc1cccc(N2CCC(C(=O)N3CCc4nc(C)[nH]c4-c4cc(Cl)ccc43)CC2)c1 [Example 90] |
| 1.91 | CCn1ncc2c1Nc1cc(F)ccc1N(C(=O)C1CCN(c3ccc(C)cn3)CC1)C2 [Example 107] |
| 23.4 | O=C(C1CCN(c2ccccn2)CC1)N1CCc2nc(C3CCCCC3)[nH]c2-c2cc(Cl)ccc21 [Example 49] |
| 6.31 | Cc1ccc(N2CCC(C(=O)N3CCc4nc(C)[nH]c4-c4cc(Cl)ccc43)CC2)nc1 [Example 45, (9-Chloro-2-methyl-4,5-dihydro-1H-1,3,6-triaza-benzo[e]azulen-6-yl)-(5′-methyl-3,4,5,6-tetrahydro-2H-[1,2′]bipyridinyl-4-yl)-methanone] |
| 0.324 | Cc1ccc(N2CCC(C(=O)N3Cc4cnn(C)c4Nc4cc(C)ccc43)CC2)cc1 [Example 129] |
| 15.1 | CCCc1nc2c([nH]1)-c1cc(Cl)ccc1N(C(=O)C1CCN(c3ccccc3)CC1)CC2 [Example 74] |
| 2.4 | Cc1ccnc(N2CCC(C(=O)N3Cc4cnn(C)c4Nc4cc(C)ccc43)CC2)c1 [Example 111] |
| 7.59 | Cc1ccc2c(c1)-c1[nH]c(C3CCOCC3)nc1CCN2C(=O)C1CCN(c2cccc(C)n2)CC1 [Example 65] |
| 26.3 | Cc1nc2c([nH]1)-c1cc(Cl)ccc1N(C(=O)C1CCN(c3ccccc3F)CC1)CC2 [Example 83] |
| 2.69 | Cc1ccc(N2CCC(C(=O)N3CCc4[nH]c(CC(C)C)nc4-c4cc(C)ccc43)CC2)nc1 [Example 29] |
| 1.29 | Cc1cccc(N2CCC(C(=O)N3Cc4cnn(C)c4Nc4cc(Cl)ccc43)CC2)c1 [Example 135] |
| 0.427 | CCn1ncc2c1Nc1cc(Cl)ccc1N(C(=O)C1CCN(c3cc(C)ccn3)CC1)C2 [Example 121] |
| 2.69 | Cc1cccnc1N1CCC(C(=O)N2Cc3cnn(C)c3Nc3cc(Cl)ccc32)CC1 [Example 116] |
| 2.63 | COc1ccc(N2CCC(C(=O)N3Cc4cnn(C)c4Nc4cc(Cl)ccc43)CC2)cc1 [Example 138] |
| 575 | CCn1ncc2c1Nc1cc(F)ccc1N(C(=O)C1CCN(c3nccc(C(F)(F)F)n3)CC1)C2 [Example 101, (3-Ethyl-6-fluoro-4,10-dihydro-3H-2,3,4,9-tetraaza-benzo[f]azulen-9-yl)-[1-(4-trifluoromethyl-pyrimidin-2-yl)-piperidin-4-yl]-methanone] |
